Data from ChEMBL document CHEMBL3627659, “Development of novel dipeptide-like rhodesain inhibitors containing the 3-bromoisoxazoline warhead in a constrained conformation” (Bioorg Med Chem, 2015).
The source made the active and inactive calls. The rule behind the calls is not given here.

Assays:
[1] = molecular target: Rhodesain (Trypanosoma brucei rhodesiense) (UniProt Q95PM0); assay: Inhibition of Trypanosoma brucei rhodesiense rhodesain using Cbz-Phe-Arg-7-amino-4-methylcoumarin assessed as substrate hydrolysis at 100 uM measured by fluorescence analysis for 10 mins
[2] = molecular target: Cathepsin B (Homo sapiens) (UniProt P07858); assay: Inhibition of human cathepsin B using Cbz-Phe-Arg-AMC at 100 uM measured by fluorescence spectrophotometry
[3] = molecular target: Procathepsin L (Homo sapiens) (UniProt P07711); assay: Inhibition of human cathepsin L using Cbz-Phe-Arg-AMC at 100 uM measured by fluorescence spectrophotometry
Rhodesain = Rhodesain (Trypanosoma brucei rhodesiense, UniProt Q95PM0); assay: Inhibition of Trypanosoma brucei rhodesiense rhodesain using Cbz-Phe-Arg-7-amino-4-methylcoumarin assessed as substrate hydrolysis measured by fluorescence analysis for 10 mins
[4] = system: Trypanosoma brucei brucei; assay: Antitrypanosomal activity against Trypanosoma brucei brucei TC 221 after 48 hrs by Alamar Blue assay; assay type: functional, organism-based; conditions: TC 221, 48 h
[5] = system: Trypanosoma brucei brucei; assay: Antitrypanosomal activity against Trypanosoma brucei brucei TC 221 after 72 hrs by Alamar Blue assay; assay type: functional, organism-based; conditions: TC 221, 72 h
[6] = Cytotoxicity against mouse J774.1 cells incubated for 24 to 48 hrs by Alamar Blue assay; assay type: cell-based

Sequence of Rhodesain (Q95PM0 whole entry): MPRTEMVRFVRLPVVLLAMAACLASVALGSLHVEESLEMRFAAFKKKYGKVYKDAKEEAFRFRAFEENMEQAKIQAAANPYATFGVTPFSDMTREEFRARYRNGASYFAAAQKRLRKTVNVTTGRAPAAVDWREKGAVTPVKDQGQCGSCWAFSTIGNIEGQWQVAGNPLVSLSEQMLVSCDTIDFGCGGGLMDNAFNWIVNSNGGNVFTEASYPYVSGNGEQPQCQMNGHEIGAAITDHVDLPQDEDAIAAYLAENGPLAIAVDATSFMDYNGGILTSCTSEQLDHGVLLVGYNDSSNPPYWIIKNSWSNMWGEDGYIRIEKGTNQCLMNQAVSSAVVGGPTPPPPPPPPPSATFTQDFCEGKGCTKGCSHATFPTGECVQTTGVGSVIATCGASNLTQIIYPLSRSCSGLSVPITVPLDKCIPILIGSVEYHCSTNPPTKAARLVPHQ
Sequence of Rhodesain (Trypanosoma brucei rhodesiense) (Q95PM0 1-450): as the sequence (Q95PM0 whole entry) above
Sequence of Procathepsin L (Homo sapiens) (P07711 114-333 limits assumed): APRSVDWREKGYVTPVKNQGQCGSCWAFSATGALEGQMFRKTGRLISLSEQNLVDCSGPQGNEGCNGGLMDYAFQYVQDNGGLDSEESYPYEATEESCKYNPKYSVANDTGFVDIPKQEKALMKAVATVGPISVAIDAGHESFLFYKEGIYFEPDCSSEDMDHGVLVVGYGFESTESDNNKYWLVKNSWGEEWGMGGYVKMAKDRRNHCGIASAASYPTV

| Structure (SMILES) | inhibition [1] | inhibition [2] | inhibition [3] | Ki (Rhodesain) [µM] | IC50 [4] [µM] | IC50 [5] [µM] | IC50 [6] [µM] |
| --- | --- | --- | --- | --- | --- | --- | --- |
| O=C(N[C@@H](CCc1ccccc1)C(=O)N1CC2ON=C(Br)C2C1)OCc1ccccc1 (mixture of isomers) | inactive | inactive |  |  |  |  |  |
| CCCOC(=O)N[C@@H](Cc1ccccc1)C(=O)N1CC2ON=C(Br)C2C1 (mixture of isomers) | 13.1% | inactive | inactive |  |  |  |  |
| C=CCOC(=O)N[C@@H](CC(C)C)C(=O)N1CC2ON=C(Br)C2C1 (mixture of isomers) | > 40% | inactive | inactive | 8.36 |  |  |  |
| C=CCOC(=O)N[C@@H](CCc1ccccc1)C(=O)N1C[C@@H]2C(Br)=NO[C@@H]2C1 | > 40% | inactive |  | 2.73 |  |  |  |
| CC(C)(C)OC(=O)N[C@@H](CCc1ccccc1)C(=O)N1CC2ON=C(Br)C2C1 (mixture of isomers) | 5.8% | inactive |  |  |  |  |  |
| C=CCOC(=O)N[C@@H](CCc1ccccc1)C(=O)N1CC2ON=C(Br)C2C1 (mixture of isomers) | > 40% | inactive |  | 2.62 |  |  |  |
| CC(C)C[C@H](NC(=O)OC(C)(C)C)C(=O)N1CC2ON=C(Br)C2C1 (mixture of isomers) | > 40% | inactive | inactive | 13.6 |  |  |  |
| C=CCOC(=O)N[C@@H](Cc1ccccc1)C(=O)N1C[C@@H]2C(Br)=NO[C@@H]2C1 | > 40% | inactive | inactive | 15.1 |  |  |  |
| C=CCOC(=O)N[C@@H](CCc1ccccc1)C(=O)N1C[C@@H]2ON=C(Br)[C@@H]2C1 | > 40% | inactive |  | 3.35 |  |  |  |
| CC(C)C[C@H](NC(=O)OCc1ccccc1)C(=O)N1CC2ON=C(Br)C2C1 (mixture of isomers) | 8.3% | inactive |  |  |  |  |  |
| CCCOC(=O)N[C@@H](CCc1ccccc1)C(=O)N1CC2ON=C(Br)C2C1 (mixture of isomers) | 15.3% | inactive |  |  |  |  |  |
| C=CCOC(=O)N[C@@H](Cc1ccccc1)C(=O)N1CC2ON=C(Br)C2C1 (mixture of isomers) | > 40% | inactive | inactive | 16.8 |  |  |  |
| C=CCOC(=O)N[C@@H](CC(C)C)C(=O)N1C[C@@H]2ON=C(Br)[C@@H]2C1 | > 40% | inactive | inactive | 9.05 |  |  |  |
| O=C(N[C@@H](Cc1ccccc1)C(=O)N1CC2ON=C(Br)C2C1)OCc1ccccc1 (mixture of isomers) | > 40% | inactive | inactive | 8.41 | 16.4 | 18.2 | > 100 |
| CCCOC(=O)N[C@@H](CC(C)C)C(=O)N1CC2ON=C(Br)C2C1 (mixture of isomers) | 11.3% | inactive | inactive |  |  |  |  |
| O=C(N[C@@H](CCc1ccccc1)C(=O)N1C[C@@H]2C(Br)=NO[C@@H]2C1)OCC1CC1 | 15.7% | inactive |  |  |  |  |  |
| O=C(N[C@@H](CCc1ccccc1)C(=O)N1C[C@@H]2C(Br)=NO[C@@H]2C1)OCc1ccc([N+](=O)[O-])cc1 | > 40% | inactive |  | 6.81 |  |  |  |
| C=CCOC(=O)N[C@@H](Cc1ccccc1)C(=O)N1C[C@@H]2ON=C(Br)[C@@H]2C1 | > 40% | inactive | inactive | 16.6 |  |  |  |
| CC(C)(C)OC(=O)N[C@@H](Cc1ccccc1)C(=O)N1CC2ON=C(Br)C2C1 (mixture of isomers) | > 40% | inactive | inactive | 17.7 |  |  |  |
| C=CCOC(=O)N[C@@H](CC(C)C)C(=O)N1C[C@@H]2C(Br)=NO[C@@H]2C1 | > 40% | inactive | inactive | 8.52 |  |  |  |
